The source of these data is patent US6087358A (priority 1997, dated 2000).

One assay has as its system Helicobacter pylori. In words: In vitro inhibition of Helicobacter pylori (broth microdilution MIC). The settings on record: for MIC: Helicobacter pylori. In general terms: In broth dilution the organism is exposed to a series of concentrations in liquid medium.
Assay [1] deals with Mycobacterium bovis BCG (recombinant strain). In words: microbe, parasite or virus in culture. In kind it is cell-based. The conditions noted are these: Mycobacterium tuberculosis variant bovis BCG, BCG, 144 h; 6 days 37° C.; read-out: MIC, column A, 3(S) compounds.
The next assay deals with Cryptosporidium parvum. In words: Inhibition of Cryptosporidium parvum (ELISA, infected HCT-8 monolayers). Type of assay: cell-based. The settings on record: Cryptosporidium parvum, HCT-8, 48 h, read-out: Percent Inhibition of C. parvum; for inhibition at 25 µg/mL: 25 μg/mL; for inhibition at 50 µg/mL: 50 μg/mL; for inhibition at 100 µg/mL: 100 μg/mL; for inhibition at 200 µg/mL: 200 μg/mL. On the procedure:
Susceptibility testing against Cryptosporidium was performed according to published procedures (K. Woods, M. Nesterenko, S. Upton, "Development of a microtiter ELISA to quantify development of Cryptosporidium parvum in vitro," FEMS Microbiology Letters, 128:89-94 (1995).
Compounds were solubilized to a concentration of 100 mg/mL in 100% DMSO. DMSO solutions of test compounds were added to the test wells of a microplate at a volume that produced a final concentration of DMSO of 0.2%. Monolayers of human ileocecal adenocarcinoma cells (HCT-8) were prepared by growth in RPMI 1640 medium in 96-Well tissue culture trays for 24 h. Oocysts of C. parvum were allowed to excyst in 10% bleach for 10 min prior to use. Monolayers were then infected with 2-3×10^4 oocysts/well and incubated in the presence or absence of compound for 48 h at 35° C. in 5% CO2 and 95% humidity. Background consisted of wells containing killed oocysts (freeze thaw cycle following 30 sec exposure to liquid nitrogen). Growth control wells were infected with 2-3×10^4 oocysts/well in the absence of test compounds. At the end of incubation, wells were washed and fixed by adding 100 uL of 4% formalin in phosphate buffered saline (pH 7.3) per well for 2 h. After blocking with 1% bovine serum albumin, and 0.002% Tween 20, 50 uL of rat anti-Cryptosporidium membrane protein antiserum was added. After 30 min, wells were washed in PBS and 50 uL of secondary antibody (goat anti-rat antibody conjugated with horseradish peroxidase) was added. After 20-30 min, wells were washed again in PBS and 50 uL of 3,3',5,5'-tetramethylbenzidine solution was added. Plates were allowed to develop for 10-15 min and the optical density was read at 630 nm. Percent inhibition was calculated by comparing the optical density of the drug treated group to that of the untreated control.
Background: An ELISA detects its analyte on a solid surface through an enzyme-linked reagent.

Assay [2] deals with Clostridium difficile ATCC 17857. In words: In vitro inhibition of Clostridium difficile (Oxyrase broth microdilution MIC). In kind it is cell-based. The conditions noted are these: Clostridioides difficile, ATCC17857; Clostridium difficile ATCC 17857, Oxyrase broth; read-out: MIC, column D, 3(S) compounds.
The test system of assay [3] is Mycobacterium bovis (rBCG-lux). Kind of assay: microbe, parasite or virus in culture. In kind it is cell-based, Mycobacterium bovis bacille Calmette Guerin. The conditions noted are these: Mycobacterium tuberculosis variant bovis, 72 h; read-out: % of control, measured in RLUs.

Molecules are shown by their SMILES. Converted amounts (≈) assume the structure as drawn. Read-outs that look alike come from different tables or passages of the source.

As to `CC1(C)S[C@@H]2[C@H](NC(=O)[C@H](N)c3ccc(O)cc3)C(=O)N2[C@H]1C(=O)O` [Amoxicillin, reference compound], in the assay on Helicobacter pylori (H. pylori ATCC 43), the “MICs of control drugs relative to expected values” is listed as “within the expected values”. The MIC was found to be 0.016 µg/mL (≈ 0.0438 µM) in the assay with Helicobacter pylori (72 h, read-out: MIC against Helicobacter pylori, strain 17 (Table 5A)); 0.016 µg/mL (≈ 0.0438 µM) in the assay on Helicobacter pylori (72 h, read-out: MIC against Helicobacter pylori, strain 19 (Table 5A)); 0.032 µg/mL (≈ 0.0876 µM) in the assay on Helicobacter pylori (72 h, read-out: MIC against Helicobacter pylori, strain 20 (Table 5A)); 0.032 µg/mL (≈ 0.0876 µM) in the assay with Helicobacter pylori (72 h, read-out: MIC against Helicobacter pylori, strain 40 (Table 5A)); 0.016 µg/mL (≈ 0.0438 µM) in the assay on Helicobacter pylori (72 h, read-out: MIC against Helicobacter pylori, strain 43 (Table 5A)); 0.032 µg/mL (≈ 0.0876 µM) in the assay with Helicobacter pylori (72 h, read-out: MIC against Helicobacter pylori, strain 76 (Table 5A)). In the assay on Helicobacter pylori (ATCC43504, 72 h, read-out: MIC against Helicobacter pylori, strain ATCC 43504 (Table 5A)), the MIC is 0.06 µg/mL (≈ 0.164 µM).

With `O=[N+]([O-])c1cn2c(n1)OC[C@@H](OCc1ccc(Oc3ccccc3)cc1)C2` [PA-1122], the MIC in assay [1] came out at 0.06 µg/mL (≈ 0.163 µM). Further, in the assay with Cryptosporidium parvum, the inhibition at 25 µg/mL was -1.8%, the inhibition at 50 µg/mL was determined as 17.8%, the inhibition at 100 µg/mL stood at 61% and the inhibition at 200 µg/mL was found to be 83.5%.

With `O=C(N[C@@H]1COc2nc([N+](=O)[O-])cn2C1)c1ccc(OC(F)(F)F)cc1` [PA-1150], the MIC in assay [1] amounted to 0.5 µg/mL (≈ 1.34 µM). In addition, in the assay with Cryptosporidium parvum, the inhibition at 25 µg/mL is 4.8%, the inhibition at 50 µg/mL came out at 1.7%, the inhibition at 100 µg/mL was 30% and the inhibition at 200 µg/mL turned out to be 96.2%.

For the compound `O=[N+]([O-])c1cn2c(n1)OC[C@@H](OCc1c(F)c(F)c(F)c(F)c1F)C2` [PA-652], the MIC in assay [1] was greater than 5 µg/mL; in assay [2], 3.12 µg/mL (≈ 8.54 µM).

In the case of `CC[C@@H](CO)NCCN[C@@H](CC)CO` [Ethambutol], in assay [3], the activity at 0.15 µg/mL came out at 179%, the activity at 0.31 µg/mL stood at 152%, the activity at 0.62 µg/mL worked out at 98.8% and the activity at 1.25 µg/mL worked out at 148%. Further, in assay [3], the activity at 2.5 µg/mL stood at 54.8% and the activity at 5 µg/mL is 53.1%.

For `O=[N+]([O-])c1cn2c(n1)OC[C@@H](OCc1cccc(OCc3ccccc3)c1)C2` [PA-820], the MIC in assay [1] is less than 5 µg/mL; in assay [2], 3.12 µg/mL (≈ 8.18 µM).

As for `[H]/N=C(/N)N[C@H]1[C@H](O)[C@@H](O)[C@H](O[C@@H]2O[C@@H](C)[C@](O)(C=O)[C@H]2O[C@@H]2O[C@@H](CO)[C@H](O)[C@@H](O)[C@@H]2NC)[C@@H](N/C(N)=N\[H])[C@@H]1O` [Streptomycin], in assay [3], the activity at 0.15 µg/mL came out at 63.5%, the activity at 0.31 µg/mL amounted to 39.8%, the activity at 0.62 µg/mL was 19.6% and the activity at 1.25 µg/mL was determined as 11.7%. Also, in assay [3], the activity at 2.5 µg/mL turned out to be 8% and the activity at 5 µg/mL is 4.4%.

As a reminder, the inhibition is the change of the read-out against control, counted positive when it falls.
